target: hSTING (Homo sapiens, UniProt Q86WV6); test: STING reporter assay in THP1-Dual KO-IFNAR2 cells (2′3′cGAMP stimulation, luciferase reporter); type: cell-based; conditions: 15 μM 2′3′cGAMP, 24 h, luciferase reporter activity
Method: STING pathway activation by the compounds described herein was measured using THP1-Dual™ cells (KO-IFNAR2).
THP1-Dual™ KO-IFNAR2 Cells (obtained from invivogen) were maintained in RPMI, 10% FCS, 5 ml P/S, 2 mM L-glut, 10 mM Hepes, and 1 mM sodium pyruvate. Compounds were spotted in empty 384 well tissue culture plates (Greiner 781182) by Echo for a final concentration of 0.0017-100 μM. Cells were plated into the TC plates at 40 μL per well, 2×10E6 cells/mL. For activation with STING ligand, 2′3′cGAMP (MW 718.38, obtained from Invivogen), was prepared in Optimem media.
The following solutions were prepared for each 1×384 plate: • Solution A: 2 mL Optimem with one of the following stimuli: • 60 μL of 10 mM 2′3′cGAMP→150 μM stock • Solution B: 2 mL Optimem with 60 μL Lipofectamine 2000→Incubate 5 min at RT
2 mL of solution A and 2 ml Solution B was mixed and incubated for 20 min at room temperature (RT). 20 μL of transfection solution (A+B) was added on top of the plated cells, with a final 2′3′cGAMP concentration of 15 μM. The plates were then centrifuged immediately at 340 g for 1 minute, after which they were incubated at 37° C., 5% CO2, >98% humidity for 24 h. Luciferase reporter activity was then measured. EC50 values were calculated by using standard methods known in the art.
Luciferase reporter assay: 10 μL of supernatant from the assay was transferred to white 384-plate with flat bottom and squared wells. One pouch of QUANTI-Luc™ Plus was dissolved in 25 mL of water. 100 μL of QLC Stabilizer per 25 mL of QUANTI-Luc™ Plus solution was added. 50 μL of QUANTI-Luc™ Plus/QLC solution per well was then added. Luminescence was measured on a Platereader (e.g., Spectramax I3X (Molecular Devices GF3637001)).
Luciferase reporter activity was then measured. EC50 values were calculated by using standard methods known in the art.

Chain of hSTING (Q86WV6 whole entry R71H/G230A/H232R/R293Q, form open): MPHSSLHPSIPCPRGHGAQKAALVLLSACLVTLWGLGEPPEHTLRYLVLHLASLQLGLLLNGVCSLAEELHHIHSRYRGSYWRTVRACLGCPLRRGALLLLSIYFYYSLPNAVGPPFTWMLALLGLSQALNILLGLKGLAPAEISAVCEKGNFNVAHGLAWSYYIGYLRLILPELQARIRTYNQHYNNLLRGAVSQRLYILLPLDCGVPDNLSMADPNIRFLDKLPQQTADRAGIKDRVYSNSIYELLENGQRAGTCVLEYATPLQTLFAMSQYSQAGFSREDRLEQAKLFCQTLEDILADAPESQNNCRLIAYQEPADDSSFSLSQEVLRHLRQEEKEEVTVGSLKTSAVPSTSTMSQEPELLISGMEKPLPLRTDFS

SMILES	EC50 [µM]
CC(=O)N1CCC(NC(=O)Nc2c[nH]c3ccc(-c4cnn(-c5ccc(C(F)(F)F)cc5)c4)cc23)C1 (centres unmarked) [Compound 101, 1-(1-acetylpyrrolidin-3-yl)-3-(5-(1-(4-(trifluoromethyl)phenyl)-1H-pyrazol-4-yl)-1H-indol-3-yl)urea]	1 to 5
CCc1ccc(-n2cc(-c3ccc4[nH]cc(NC(=O)N5CCN(C(C)=O)CC5)c4c3)cn2)cc1 [Compound 108, 4-acetyl-N-{5-[1-(4-ethylphenyl)-1H-pyrazol-4-yl]-1H-indol-3-yl}piperazine-1-carboxamide]	1 to 5
CNC(=O)Nc1c[nH]c2ccc(-c3cnn(-c4cccc(Cl)c4)c3)cc12 [Compound 113, 1-{5-[1-(3-chlorophenyl)-1H-pyrazol-4-yl]-1H-indol-3-yl}-3-methylurea]	0.2 to 1
CNC(=O)Nc1c[nH]c2ccc(-c3cnn(-c4ccccc4Cl)c3)cc12 [Compound 115, 1-{5-[1-(2-chlorophenyl)-1H-pyrazol-4-yl]-1H-indol-3-yl}-3-methylurea]	1 to 5
CNC(=O)Nc1c[nH]c2ccc(-c3cnn(-c4cccc(C#N)c4)c3)cc12 [Compound 116, 1-{5-[1-(3-cyanophenyl)-1H-pyrazol-4-yl]-1H-indol-3-yl}-3-methylurea]	5 to 100
CNC(=O)Nc1c[nH]c2ccc(-c3ccnc(N4CCCCC4)c3)cc12 [Compound 117, 3-methyl-1-{5-[2-(piperidin-1-yl)pyridin-4-yl]-1H-indol-3-yl}urea]	5 to 100
CNC(=O)Nc1c[nH]c2ccc(-c3cnn(-c4ccc(C(F)(F)F)cc4)c3)cc12 [Compound 118, 1-methyl-3-(5-(1-(4-(trifluoromethyl)phenyl)-1H-pyrazol-4-yl)-1H-indol-3-yl)urea]	0.2 to 1
CCc1ccc(-n2cc(-c3ccc4[nH]cc(NC(=O)N(C)C)c4c3)cn2)cc1 [Compound 119, 3-(5-(1-(4-ethylphenyl)-1H-pyrazol-4-yl)-1H-indol-3-yl)-1,1-dimethylurea]	0.2 to 1
CCc1ccc(-n2cc(-c3ccc4[nH]cc(NC(=O)NC5CCCC5)c4c3)cn2)cc1 [Compound 120, 1-cyclopentyl-3-(5-(1-(4-ethylphenyl)-1H-pyrazol-4-yl)-1H-indol-3-yl)urea]	0.2 to 1
CNC(=O)Nc1c[nH]c2ccc(-c3ccc(C4(C#N)CC4)cc3)cc12 [Compound 121, 1-{5-[4-(1-cyanocyclopropyl)phenyl]-1H-indol-3-yl}-3-methylurea]	5 to 100
CNC(=O)Nc1c[nH]c2ccc(-c3cccc(C4CC4)c3)cc12 [Compound 122, 1-[5-(3-cyclopropylphenyl)-1H-indol-3-yl]-3-methylurea]	1 to 5
CNC(=O)Nc1c[nH]c2ccc(-c3cnn(C4CCCC4)c3)cc12 [Compound 123, 1-[5-(1-cyclopentyl-1H-pyrazol-4-yl)-1H-indol-3-yl]-3-methylurea]	5 to 100
CCc1ccc(-n2cc(-c3ccc4[nH]cc(NC(=O)NC5CCOC5)c4c3)cn2)cc1 (centres unmarked) [Compound 124, 1-(5-(1-(4-ethylphenyl)-1H-pyrazol-4-yl)-1H-indol-3-yl)-3-(tetrahydrofuran-3-yl)urea]	0.2 to 1
CCc1ccc(-n2cc(-c3ccc4[nH]cc(NC(=O)N[C@H]5C[C@H](OC)C5)c4c3)cn2)cc1 [Compound 125, 1-(5-(1-(4-ethylphenyl)-1H-pyrazol-4-yl)-1H-indol-3-yl)-3-((1r,3r)-3-methoxycyclobutyl)urea]	0.2 to 1
CCc1ccc(-n2cc(-c3ccc4[nH]cc(NC(=O)NC5CCC5)c4c3)cn2)cc1 [Compound 126, 1-cyclobutyl-3-(5-(1-(4-ethylphenyl)-1H-pyrazol-4-yl)-1H-indol-3-yl)urea]	0.2 to 1
CCc1ccc(-n2cc(-c3ccc4[nH]cc(NC(=O)NCC(F)F)c4c3)cn2)cc1 [Compound 127, 1-(2,2-difluoroethyl)-3-(5-(1-(4-ethylphenyl)-1H-pyrazol-4-yl)-1H-indol-3-yl)urea]	0.2 to 1
CCc1ccc(-n2cc(-c3ccc4[nH]cc(NC(=O)NCC5CC5)c4c3)cn2)cc1 [Compound 128, 1-(cyclopropylmethyl)-3-(5-(1-(4-ethylphenyl)-1H-pyrazol-4-yl)-1H-indol-3-yl)urea]	0.2 to 1
CCc1ccc(-n2cc(-c3ccc4[nH]cc(NC(=O)NC(C)C)c4c3)cn2)cc1 [Compound 130, 1-(5-(1-(4-ethylphenyl)-1H-pyrazol-4-yl)-1H-indol-3-yl)-3-isopropylurea]	0.2 to 1
CNC(=O)Nc1c[nH]c2ccc(-c3cnn(-c4ccccc4)c3)cc12 [Compound 131, 3-methyl-1-[5-(1-phenyl-1H-pyrazol-4-yl)-1H-indol-3-yl]urea]	1 to 5
CCc1ccc(-n2cc(-c3ccc4[nH]cc(NC(=O)NC)c4c3)cn2)cc1 [Compound 132, 1-(5-(1-(4-ethylphenyl)-1H-pyrazol-4-yl)-1H-indol-3-yl)-3-methylurea]	0.2 to 1

The remaining lines, values ahead:

EC50 [µM]	SMILES
0.2 to 1	CC(C)(O)CNC(=O)Nc1c[nH]c2ccc(-c3cnn(-c4ccc(C(F)(F)F)cc4)c3)cc12 [Compound 102, 1-(2-hydroxy-2-methylpropyl)-3-(5-(1-(4-(trifluoromethyl)phenyl)-1H-pyrazol-4-yl)-1H-indol-3-yl)urea]
0.2 to 1	O=C(NCC1CC1)Nc1c[nH]c2ccc(-c3cnn(Cc4ccc(C(F)(F)F)cc4)c3)cc12 [Compound 103, 1-(cyclopropylmethyl)-3-(5-(1-(4-(trifluoromethyl)benzyl)-1H-pyrazol-4-yl)-1H-indol-3-yl)urea]
0.2 to 1	O=C(NCC(F)(F)F)Nc1c[nH]c2ccc(-c3cnn(-c4ccc(C(F)(F)F)cc4)c3)cc12 [Compound 104, 1-(2,2,2-trifluoroethyl)-3-(5-(1-(4-(trifluoromethyl)phenyl)-1H-pyrazol-4-yl)-1H-indol-3-yl)urea]
0.2 to 1	CNC(=O)Nc1c[nH]c2ccc(-c3cnn(Cc4ccc(C(F)(F)F)cc4)c3)cc12 [Compound 105, 1-methyl-3-(5-(1-(4-(trifluoromethyl)benzyl)-1H-pyrazol-4-yl)-1H-indol-3-yl)urea]
0.2 to 1	O=C(NCC1CC1)Nc1c[nH]c2ccc(-c3cnn(-c4ccc(C(F)(F)F)cn4)c3)cc12 [Compound 106, 1-(cyclopropylmethyl)-3-(5-(1-(5-(trifluoromethyl)pyridin-2-yl)-1H-pyrazol-4-yl)-1H-indol-3-yl)urea]
0.2 to 1	O=C(NCC(F)(F)F)Nc1c[nH]c2ccc(-c3cnn(-c4ccc(C(F)(F)F)cn4)c3)cc12 [Compound 107, 1-(2,2,2-trifluoroethyl)-3-(5-(1-(5-(trifluoromethyl)pyridin-2-yl)-1H-pyrazol-4-yl)-1H-indol-3-yl)urea]
0.2 to 1	O=C(NCC1CC1)Nc1c[nH]c2ccc(-c3cnn(-c4ccc(C(F)(F)F)cc4)c3)cc12 [Compound 109, 1-(cyclopropylmethyl)-3-(5-(1-(4-(trifluoromethyl)phenyl)-1H-pyrazol-4-yl)-1H-indol-3-yl)urea]
0.2 to 1	CCc1ccc(-n2cc(-c3ccc4[nH]cc(NC(=O)NCCOC)c4c3)cn2)cc1 [Compound 110, 1-(5-(1-(4-ethylphenyl)-1H-pyrazol-4-yl)-1H-indol-3-yl)-3-(2-methoxyethyl) urea]
0.2 to 1	CCc1ccc(-n2cc(-c3ccc4[nH]cc(NC(=O)NCC5CCCC5)c4c3)cn2)cc1 [Compound 111, 1-(cyclopentylmethyl)-3-{5-[1-(4-ethylphenyl)-1H-pyrazol-4-yl]-1H-indol-3-yl}urea]
0.2 to 1	CCc1ccc(-n2cc(-c3ccc4[nH]cc(NC(=O)N5CCCC5)c4c3)cn2)cc1 [Compound 112, N-(5-(1-(4-ethylphenyl)-1H-pyrazol-4-yl)-1H-indol-3-yl)pyrrolidine-1-carboxamide]
0.04 to 0.2	CCc1ccc(-n2cc(-c3ccc4[nH]cc(NC(=O)NCCC(F)(F)F)c4c3)cn2)cc1 [Compound 114, 1-(5-(1-(4-ethylphenyl)-1H-pyrazol-4-yl)-1H-indol-3-yl)-3-(3,3,3-trifluoropropyl)urea]
0.04 to 0.2	CCc1ccc(-n2cc(-c3ccc4[nH]cc(NC(=O)NCC(F)(F)F)c4c3)cn2)cc1 [Compound 129, 1-{5-(1-(4-ethylphenyl)-1H-pyrazol-4-yl]-1H-indol-3-yl}-3-(2,2,2-trifluoroethyl)urea]
